# System: brain
# Assay: Matured TTM-001 and TTM-002 variants, NGS enrichment in mouse brain
# Format: in vivo, mice
# Conditions: NGS fold-enrichment, brain of mice, relative to AAV9 control
row,Sequence,"Fold Enrichment relative to AAV9, Brain (Mouse)"
1,KTINGSGSPHSKAQAPST,115.528 fold
2,KTINGSGSPHSKAHNQQR,107.301 fold
3,KTINGPGSPHSKAHNQQT,52.508 fold
4,KTTNGSGSPHSKAQYQHT,83.337 fold
5,KEINGRGSPHSKAQNQQT,52.311 fold
6,KSINGSGSPHSKAQAQQT,78.451 fold
7,KTCNKSGSPHSKAQNQQT,119.496 fold
8,KTENTSGSPHSKAQNQQT,96.249 fold
9,KNALGSGSPHSKAQNQQT,137.222 fold
10,KTVPNSGSPHSKAQNQQT,93.793 fold

# Same assay, conditions: NGS fold-enrichment, mouse brain, relative to AAV9 control
row,Sequence,"Fold Enrichment relative to AAV9, Brain (Mouse)"
1,KTINGPGSPHSKAHNQQT,52.508 fold
2,KAINGHDSPHKSAQSQQT,14.595 fold
3,KTINGYDSPHKSGQYQHT,10.524 fold
4,KEINGRGSPHSKAQNQQT,52.311 fold
5,KTCNKSGSPHSKAQNQQT,119.496 fold

# Same assay, conditions: mouse brain; relative to AAV9 control
row,Sequence,"Fold Enrichment relative to AAV9, Brain (Mouse)"
1,KTVHGSGSPHSKAQSQQT,54.185 fold
2,KNAIGSGSPHSKAQNQQT,117.939 fold
3,KAINGSGSPHSKAQSQQI,57.052 fold
4,KTINGSGSPHSKAQPLGT,68.656 fold

# System: brains, heart, liver, muscle, and DRG of the NHPs
# Assay: Maturation of TTM-001 and TTM-002 capsids, NGS enrichment in NHP tissues
# Format: in vivo
# Conditions: NGS fold-enrichment of RNA, NHP brain, relative to AAV9 control
# How it was run: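 Variants carry mutations within and flanking the loop IV peptide insert: positions 450–466 were triplet-randomized, while positions 449–466 received low-frequency point mutations. The combined pool went into two NHPs, and each peptide was scored by NGS enrichment ratio against AAV9.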
row,Sequence,"Fold Enrichment relative to AAV9, Brain (NHP)"
1,KTINGPGSPHSKAHNQQT,115.742 fold
2,KAINGHDSPHKSAQSQQT,95.204 fold
3,KTINGYDSPHKSGQYQHT,81.534 fold
4,KEINGRGSPHSKAQNQQT,134.390 fold
5,KTCNKSGSPHSKAQNQQT,83.992 fold

# Same assay, conditions: NGS fold-enrichment of matured AAV capsid variants; NHP brain, RNA; relative to AAV9 control
row,Sequence,"Fold Enrichment relative to AAV9, Brain (NHP)"
1,KTVHGSGSPHSKAQSQQT,51.057 fold
2,KNAIGSGSPHSKAQNQQT,52.516 fold
3,KAINGSGSPHSKAQSQQI,56.976 fold
4,KTINGSGSPHSKAQPLGT,53.049 fold

# Same assay, conditions: NGS fold-enrichment, DRG of NHPs, relative to AAV9 control
row,Sequence,"Fold Enrichment relative to AAV9, DRG (NHP)"
1,KTINGSGSPHSKAQAPST,0.200 fold
2,KTINGSGSPHSKAHNQQR,0.562 fold
3,KTINGPGSPHSKAHNQQT,0.146 fold
4,KTTNGSGSPHSKAQYQHT,0.000 fold
5,KEINGRGSPHSKAQNQQT,0.239 fold
6,KSINGSGSPHSKAQAQQT,0.000 fold
7,KTCNKSGSPHSKAQNQQT,0.000 fold
8,KTENTSGSPHSKAQNQQT,0.000 fold
9,KNALGSGSPHSKAQNQQT,0.000 fold
10,KTVPNSGSPHSKAQNQQT,0.000 fold

# Same assay, conditions: NGS fold-enrichment, NHP DRG, relative to AAV9 control
row,Sequence,"Fold Enrichment relative to AAV9, DRG (NHP)"
1,KTINGPGSPHSKAHNQQT,0.146 fold
2,KAINGHDSPHKSAQSQQT,0.146 fold
3,KTINGYDSPHKSGQYQHT,0.000 fold
4,KEINGRGSPHSKAQNQQT,0.239 fold
5,KTCNKSGSPHSKAQNQQT,0.000 fold

# Same assay, conditions: NGS fold-enrichment, NHP heart, relative to AAV9 control
row,Sequence,"Fold Enrichment relative to AAV9, Heart (NHP)"
1,KTINGPGSPHSKAHNQQT,0.000 fold
2,KAINGHDSPHKSAQSQQT,0.310 fold
3,KTINGYDSPHKSGQYQHT,0.036 fold
4,KEINGRGSPHSKAQNQQT,0.000 fold
5,KTCNKSGSPHSKAQNQQT,0.000 fold

# Same assay, conditions: NGS fold-enrichment, NHP liver DNA, relative to AAV9 control
row,Sequence,"Fold Enrichment relative to AAV9, Liver DNA (NHP)"
1,KTINGPGSPHSKAHNQQT,0.513 fold
2,KAINGHDSPHKSAQSQQT,0.058 fold
3,KTINGYDSPHKSGQYQHT,0.000 fold
4,KEINGRGSPHSKAQNQQT,0.232 fold
5,KTCNKSGSPHSKAQNQQT,0.000 fold

# Same assay, conditions: NGS fold-enrichment, NHP liver RNA, relative to AAV9 control
row,Sequence,"Fold Enrichment relative to AAV9, Liver RNA (NHP)"
1,KTINGPGSPHSKAHNQQT,0.000 fold
2,KAINGHDSPHKSAQSQQT,0.699 fold
3,KTINGYDSPHKSGQYQHT,0.000 fold
4,KEINGRGSPHSKAQNQQT,0.000 fold
5,KTCNKSGSPHSKAQNQQT,0.283 fold

# Same assay, conditions: NGS fold-enrichment, NHP muscle, relative to AAV9 control
row,Sequence,"Fold Enrichment relative to AAV9, Muscle (NHP)"
1,KTINGPGSPHSKAHNQQT,0.235 fold
2,KAINGHDSPHKSAQSQQT,0.000 fold
3,KTINGYDSPHKSGQYQHT,0.000 fold
4,KEINGRGSPHSKAQNQQT,0.000 fold
5,KTCNKSGSPHSKAQNQQT,0.165 fold

# Same assay, conditions: NGS fold-enrichment, RNA, brain of NHPs, relative to AAV9 control
row,Sequence,"Fold Enrichment relative to AAV9, Brain (NHP)"
1,KTINGSGSPHSKAQAPST,60.696 fold
2,KTINGSGSPHSKAHNQQR,74.272 fold
3,KTINGPGSPHSKAHNQQT,115.742 fold
4,KTTNGSGSPHSKAQYQHT,67.325 fold
5,KEINGRGSPHSKAQNQQT,134.390 fold
6,KSINGSGSPHSKAQAQQT,66.464 fold
7,KTCNKSGSPHSKAQNQQT,83.992 fold
8,KTENTSGSPHSKAQNQQT,74.061 fold
9,KNALGSGSPHSKAQNQQT,60.014 fold
10,KTVPNSGSPHSKAQNQQT,62.540 fold

# Same assay, conditions: NGS fold-enrichment, heart of NHPs, relative to AAV9 control
row,Sequence,"Fold Enrichment relative to AAV9, Heart (NHP)"
1,KTINGSGSPHSKAQAPST,0.005 fold
2,KTINGSGSPHSKAHNQQR,0.486 fold
3,KTINGPGSPHSKAHNQQT,0.000 fold
4,KTTNGSGSPHSKAQYQHT,0.000 fold
5,KEINGRGSPHSKAQNQQT,0.000 fold
6,KSINGSGSPHSKAQAQQT,0.711 fold
7,KTCNKSGSPHSKAQNQQT,0.000 fold
8,KTENTSGSPHSKAQNQQT,0.000 fold
9,KNALGSGSPHSKAQNQQT,0.003 fold
10,KTVPNSGSPHSKAQNQQT,0.000 fold

# Same assay, conditions: NGS fold-enrichment, liver DNA of NHPs, relative to AAV9 control
row,Sequence,"Fold Enrichment relative to AAV9, Liver DNA (NHP)"
1,KTINGSGSPHSKAQAPST,0.263 fold
2,KTINGSGSPHSKAHNQQR,0.057 fold
3,KTINGPGSPHSKAHNQQT,0.513 fold
4,KTTNGSGSPHSKAQYQHT,0.080 fold
5,KEINGRGSPHSKAQNQQT,0.232 fold
6,KSINGSGSPHSKAQAQQT,0.111 fold
7,KTCNKSGSPHSKAQNQQT,0.000 fold
8,KTENTSGSPHSKAQNQQT,0.730 fold
9,KNALGSGSPHSKAQNQQT,0.213 fold
10,KTVPNSGSPHSKAQNQQT,0.161 fold

# Same assay, conditions: NGS fold-enrichment, liver RNA of NHPs, relative to AAV9 control
row,Sequence,"Fold Enrichment relative to AAV9, Liver RNA (NHP)"
1,KTINGSGSPHSKAQAPST,0.751 fold
2,KTINGSGSPHSKAHNQQR,0.956 fold
3,KTINGPGSPHSKAHNQQT,0.000 fold
4,KTTNGSGSPHSKAQYQHT,1.378 fold
5,KEINGRGSPHSKAQNQQT,0.000 fold
6,KSINGSGSPHSKAQAQQT,0.148 fold
7,KTCNKSGSPHSKAQNQQT,0.283 fold
8,KTENTSGSPHSKAQNQQT,0.233 fold
9,KNALGSGSPHSKAQNQQT,0.682 fold
10,KTVPNSGSPHSKAQNQQT,0.202 fold

# Same assay, conditions: NGS fold-enrichment, muscle of NHPs, relative to AAV9 control
row,Sequence,"Fold Enrichment relative to AAV9, Muscle (NHP)"
1,KTINGSGSPHSKAQAPST,0.000 fold
2,KTINGSGSPHSKAHNQQR,0.047 fold
3,KTINGPGSPHSKAHNQQT,0.235 fold
4,KTTNGSGSPHSKAQYQHT,0.000 fold
5,KEINGRGSPHSKAQNQQT,0.000 fold
6,KSINGSGSPHSKAQAQQT,0.000 fold
7,KTCNKSGSPHSKAQNQQT,0.165 fold
8,KTENTSGSPHSKAQNQQT,0.218 fold
9,KNALGSGSPHSKAQNQQT,0.000 fold
10,KTVPNSGSPHSKAQNQQT,0.011 fold

# Same assay, conditions: NHP DRG; relative to AAV9 control
row,Sequence,"Fold Enrichment relative to AAV9, DRG (NHP)"
1,KTVHGSGSPHSKAQSQQT,0.000 fold
2,KNAIGSGSPHSKAQNQQT,0.000 fold
3,KAINGSGSPHSKAQSQQI,0.000 fold
4,KTINGSGSPHSKAQPLGT,0.015 fold

# Same assay, conditions: NHP heart; relative to AAV9 control
row,Sequence,"Fold Enrichment relative to AAV9, Heart (NHP)"
1,KTVHGSGSPHSKAQSQQT,0.000 fold
2,KNAIGSGSPHSKAQNQQT,0.000 fold
3,KAINGSGSPHSKAQSQQI,0.000 fold
4,KTINGSGSPHSKAQPLGT,0.004 fold

# Same assay, conditions: NHP liver, DNA; relative to AAV9 control
row,Sequence,"Fold Enrichment relative to AAV9, Liver DNA (NHP)"
1,KTVHGSGSPHSKAQSQQT,0.146 fold
2,KNAIGSGSPHSKAQNQQT,0.198 fold
3,KAINGSGSPHSKAQSQQI,0.000 fold
4,KTINGSGSPHSKAQPLGT,0.222 fold

# Same assay, conditions: NHP liver, RNA; relative to AAV9 control
row,Sequence,"Fold Enrichment relative to AAV9, Liver RNA (NHP)"
1,KTVHGSGSPHSKAQSQQT,0.143 fold
2,KNAIGSGSPHSKAQNQQT,0.165 fold
3,KAINGSGSPHSKAQSQQI,0.000 fold
4,KTINGSGSPHSKAQPLGT,0.515 fold

# Same assay, conditions: NHP muscle; relative to AAV9 control
row,Sequence,"Fold Enrichment relative to AAV9, Muscle (NHP)"
1,KTVHGSGSPHSKAQSQQT,0.000 fold
2,KNAIGSGSPHSKAQNQQT,0.000 fold
3,KAINGSGSPHSKAQSQQI,0.000 fold
4,KTINGSGSPHSKAQPLGT,0.001 fold
